pIC50: −log10 of the molar value. Numbered stars: 1 amine (or outer) side, 2 acyl side, 3 side chain; on linkers, the order of the positions; unused ones are H or OH. Bridge positions count the residues as written; N and C are the ends. Square brackets hold non-standard residues; d marks the D form. Side chains are listed from the residue outwards. Peptide text beside a SMILES is read from it. I, II: the chains in the order shown. * marks the point of attachment. C18 diacid = O=C(O)CCCCCCCCCCCCCCCCC(=O)*; γGlu = O=C(O)[C@H](CCC(=O)[*:2])N[*:1]; AEEA = NCCOCCOCC(=O)O; Aib = CC(C)(N)C(=O)O
target: T1, human GLP-1 receptor (Homo sapiens, UniProt P43220); assay: GLP-1 receptor binding, 125I-GLP-1 displacement SPA on isolated membranes; details: displacement of 125I-GLP-1 from membranes; read-out: IC50 GLP-1R
T1 construct: expressed in transfected cells; host or cells: BHK cells (parent BHKTS13), clone FCW467-12A/KZ10-1, with CRE luciferase
Method in brief: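 Test derivatives, serially diluted, competed with 125I-GLP-1(7-36)NH2 for the human GLP-1 receptor on BHK membranes, read by WGA-bead scintillation proximity after 2 h at 30°C, pH 7.4 HEPES/EGTA/MgCl2 buffer. Final serum albumin was either ≤0.001% or 2.0%; IC50 from non-linear fit.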

T1 sequence (P43220 24-463): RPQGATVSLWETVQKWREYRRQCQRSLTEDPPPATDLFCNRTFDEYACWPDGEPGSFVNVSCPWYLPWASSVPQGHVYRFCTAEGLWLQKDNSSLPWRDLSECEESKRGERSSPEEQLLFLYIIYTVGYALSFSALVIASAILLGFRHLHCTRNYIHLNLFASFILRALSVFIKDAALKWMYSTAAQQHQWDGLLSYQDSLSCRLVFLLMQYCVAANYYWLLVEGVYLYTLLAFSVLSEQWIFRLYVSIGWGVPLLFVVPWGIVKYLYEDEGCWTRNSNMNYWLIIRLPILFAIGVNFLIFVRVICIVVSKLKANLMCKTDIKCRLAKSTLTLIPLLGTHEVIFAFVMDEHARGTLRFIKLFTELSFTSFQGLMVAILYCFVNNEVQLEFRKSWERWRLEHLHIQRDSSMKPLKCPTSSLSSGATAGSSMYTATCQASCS

`CC(C)C[C@H](NC(=O)[C@H](Cc1ccc(O)cc1)NC(=O)[C@H](CCCCN)NC(=O)[C@H](CO)NC(=O)[C@H](CC(C)C)NC(=O)[C@H](CC(=O)O)NC(=O)[C@H](CO)NC(=O)[C@@H](NC(=O)[C@H](Cc1ccccc1)NC(=O)[C@@H](NC(=O)CNC(=O)[C@H](CCC(N)=O)NC(=O)C(C)(C)NC(=O)[C@@H](N)Cc1c[nH]cn1)[C@@H](C)O)[C@@H](C)O)C(=O)N[C@@H](CCC(=O)O)C(=O)N[C@@H](CO)C(=O)N[C@@H](CCCNC(=N)N)C(=O)N[C@@H](CCCNC(=N)N)C(=O)N[C@@H](C)C(=O)N[C@@H](CCCNC(=N)N)C(=O)N[C@@H](CCC(=O)O)C(=O)N[C@@H](Cc1ccccc1)C(=O)N[C@H](C(=O)N[C@@H](CCC(N)=O)C(=O)N[C@@H](Cc1c[nH]c2ccccc12)C(=O)N[C@@H](CC(C)C)C(=O)N[C@@H](CC(C)C)C(=O)N[C@@H](CCCCNC(=O)CC[C@H](NC(=O)COCCOCCNC(=O)COCCOCCNC(=O)CC[C@H](NC(=O)CC[C@H](NC(=O)CCCCCCCCCCCCCCCCC(=O)O)C(=O)O)C(=O)O)C(=O)O)C(=O)N[C@H](C(N)=O)[C@@H](C)O)C(C)C` [Example 20, N^ε29-[(4S)-4-carboxy-4-[[2-[2-[2-[[2-[2-[2-[[(4S)-4-carboxy-4-[[(4S)-4-carboxy-4-(17-carboxyheptadecanoylamino)butanoyl]amino]butanoyl]amino]ethoxy]ethoxy]acetyl]amino]ethoxy]ethoxy]acetyl]amino]butanoyl]-[Aib2,Leu10,Glu15,Arg20,Glu21,Leu27,Lys28]-Glucagon amide] (H-H[Aib]QGTFTSDLSKYLESRRAREFVQWLLK([γGlu-AEEA-AEEA-γGlu-γGlu-C18 diacid])T-NH2; N-terminus assumed) and `CC(C)C[C@H](NC(=O)[C@H](Cc1ccc(O)cc1)NC(=O)[C@H](CCCCN)NC(=O)[C@H](CO)NC(=O)[C@H](CC(C)C)NC(=O)[C@H](CC(=O)O)NC(=O)[C@H](CO)NC(=O)[C@@H](NC(=O)[C@H](Cc1ccccc1)NC(=O)[C@@H](NC(=O)CNC(=O)[C@H](CCC(N)=O)NC(=O)C(C)(C)NC(=O)[C@@H](N)Cc1c[nH]cn1)[C@@H](C)O)[C@@H](C)O)C(=O)N[C@@H](CCC(=O)O)C(=O)N[C@@H](CO)C(=O)N[C@@H](CCCNC(=N)N)C(=O)N[C@@H](CCCNC(=N)N)C(=O)N[C@@H](C)C(=O)N[C@@H](CCCNC(=N)N)C(=O)N[C@@H](CCC(=O)O)C(=O)N[C@@H](Cc1ccccc1)C(=O)N[C@H](C(=O)N[C@@H](CCC(N)=O)C(=O)N[C@@H](Cc1c[nH]c2ccccc12)C(=O)N[C@@H](CC(C)C)C(=O)N[C@@H](CC(C)C)C(=O)N[C@@H](CCCCNC(=O)CC[C@H](NC(=O)CC[C@H](NC(=O)COCCOCCNC(=O)COCCOCCNC(=O)CC[C@H](NC(=O)CCCCCCCCCCCCCCCCC(=O)O)C(=O)O)C(=O)O)C(=O)O)C(=O)N[C@H](C(N)=O)[C@@H](C)O)C(C)C` [Example 23, N^ε28-[(4S)-4-carboxy-4-[[(4S)-4-carboxy-4-[[2-[2-[2-[[2-[2-[2-[[(4S)-4-carboxy-4-(17-carboxyheptadecanoylamino)butanoyl]amino]ethoxy]ethoxy]acetyl]amino]ethoxy]ethoxy]acetyl]amino]butanoyl]amino]butanoyl]-[Aib2,Leu10,Glu15,Arg20,Glu21,Leu27,Lys28]-Glucagon amide] (H-H[Aib]QGTFTSDLSKYLESRRAREFVQWLLK([γGlu-γGlu-AEEA-AEEA-γGlu-C18 diacid])T-NH2; N-terminus assumed) are within 0.2 log units of each other in pIC50: 9.40 for the first, 9.52 for the second.

Going from `CC(C)C[C@H](NC(=O)[C@H](CC(C)C)NC(=O)[C@H](Cc1c[nH]c2ccccc12)NC(=O)[C@H](CCC(N)=O)NC(=O)[C@@H](NC(=O)[C@H](Cc1ccccc1)NC(=O)[C@H](CCC(=O)O)NC(=O)[C@H](CCCNC(=N)N)NC(=O)[C@H](C)NC(=O)[C@H](CCCNC(=N)N)NC(=O)[C@H](CCCNC(=N)N)NC(=O)[C@H](CO)NC(=O)[C@H](CCC(=O)O)NC(=O)[C@H](CC(C)C)NC(=O)[C@H](Cc1ccc(O)cc1)NC(=O)[C@H](CCCCN)NC(=O)[C@H](CO)NC(=O)[C@H](CC(C)C)NC(=O)[C@H](CC(=O)O)NC(=O)[C@H](CO)NC(=O)[C@@H](NC(=O)[C@H](Cc1ccccc1)NC(=O)[C@@H](NC(=O)CNC(=O)[C@H](CCC(N)=O)NC(=O)C(C)(C)NC(=O)[C@@H](N)Cc1c[nH]cn1)[C@@H](C)O)[C@@H](C)O)C(C)C)C(=O)N[C@@H](CC(N)=O)C(=O)N[C@@H](CCCCNC(=O)CC[C@H](NC(=O)COCCOCCNC(=O)COCCOCCNC(=O)CC[C@H](NC(=O)CC[C@H](NC(=O)CCCCCCCCCCCCCCCCC(=O)O)C(=O)O)C(=O)O)C(=O)O)C(N)=O` [Example 21, N^ε29-[(4S)-4-carboxy-4-[[2-[2-[2-[[2-[2-[2-[[(4S)-4-carboxy-4-[[(4S)-4-carboxy-4-(17-carboxyheptadecanoylamino)butanoyl]amino]butanoyl]amino]ethoxy]ethoxy]acetyl]amino]ethoxy]ethoxy]acetyl]amino]butanoyl]-[Aib2,Leu10,Glu15,Arg20,Glu21,Leu27,Lys29]-Glucagon amide] (H-H[Aib]QGTFTSDLSKYLESRRAREFVQWLLNK([γGlu-AEEA-AEEA-γGlu-γGlu-C18 diacid])-NH2; N-terminus assumed) to `CC(C)C[C@H](NC(=O)[C@H](CC(=O)O)NC(=O)[C@H](CC(C)C)NC(=O)[C@H](Cc1ccc(O)cc1)NC(=O)[C@H](CCCCN)NC(=O)[C@H](CO)NC(=O)[C@H](CC(C)C)NC(=O)[C@H](CC(=O)O)NC(=O)[C@H](CO)NC(=O)[C@@H](NC(=O)[C@H](Cc1ccccc1)NC(=O)[C@@H](NC(=O)CNC(=O)[C@H](CCC(N)=O)NC(=O)C(C)(C)NC(=O)[C@@H](N)Cc1c[nH]cn1)[C@@H](C)O)[C@@H](C)O)C(=O)N[C@@H](CCCCN)C(=O)N[C@@H](CCCNC(=N)N)C(=O)N[C@@H](C)C(=O)N[C@@H](CCCNC(=N)N)C(=O)N[C@@H](CCC(=O)O)C(=O)N[C@@H](Cc1ccccc1)C(=O)N[C@H](C(=O)N[C@@H](CCC(N)=O)C(=O)N[C@@H](Cc1c[nH]c2ccccc12)C(=O)N[C@@H](CC(C)C)C(=O)N[C@@H](CC(C)C)C(=O)N[C@@H](CCCCNC(=O)CC[C@H](NC(=O)CC[C@H](NC(=O)COCCOCCNC(=O)COCCOCCNC(=O)CC[C@H](NC(=O)CCCCCCCCCCCCCCCCC(=O)O)C(=O)O)C(=O)O)C(=O)O)C(=O)N[C@H](C(N)=O)[C@@H](C)O)C(C)C` [Example 26, N^ε28-[(4S)-4-carboxy-4-[[(4S)-4-carboxy-4-[[2-[2-[2-[[2-[2-[2-[[(4S)-4-carboxy-4-(17-carboxyheptadecanoylamino)butanoyl]amino]ethoxy]ethoxy]-acetyl]amino]ethoxy]ethoxy]acetyl]amino]butanoyl]amino]butanoyl]-[Aib2,Leu10,Leu16,Lys17,Arg20,Glu21, Leu27,Lys28]-Glucagon amide] (H-H[Aib]QGTFTSDLSKYLDLKRAREFVQWLLK([γGlu-γGlu-AEEA-AEEA-γGlu-C18 diacid])T-NH2), the pIC50 falls from 9.52 to 9.30 (0.22 log units).

In the case of `CC(C)C[C@H](NC(=O)[C@H](Cc1ccc(O)cc1)NC(=O)[C@H](CCCCN)NC(=O)[C@H](CO)NC(=O)[C@H](CC(C)C)NC(=O)[C@H](CC(=O)O)NC(=O)[C@H](CO)NC(=O)[C@@H](NC(=O)[C@H](Cc1ccccc1)NC(=O)[C@@H](NC(=O)CNC(=O)[C@H](CCC(N)=O)NC(=O)C(C)(C)NC(=O)[C@@H](N)Cc1c[nH]cn1)[C@@H](C)O)[C@@H](C)O)C(=O)N[C@@H](CCC(=O)O)C(=O)N[C@@H](CO)C(=O)N[C@@H](CCCCN)C(=O)N[C@@H](CCCNC(=N)N)C(=O)N[C@@H](C)C(=O)N[C@@H](CCCNC(=N)N)C(=O)N[C@@H](CCC(=O)O)C(=O)N[C@@H](Cc1ccccc1)C(=O)N[C@H](C(=O)N[C@@H](CCC(N)=O)C(=O)N[C@@H](Cc1c[nH]c2ccccc12)C(=O)N[C@@H](CC(C)C)C(=O)N[C@@H](CC(C)C)C(=O)N[C@@H](CCCCNC(=O)CNC(=O)[C@H](CO)NC(=O)[C@H](CCC(=O)O)NC(=O)CNC(=O)[C@H](CO)NC(=O)CC[C@H](NC(=O)CC[C@H](NC(=O)CCCCCCCCCCCCCCCCC(=O)O)C(=O)O)C(=O)O)C(=O)N[C@H](C(N)=O)[C@@H](C)O)C(C)C` [Example 25, N^ε28-[2-[[(2S)-2-[[(2S)-4-carboxy-2-[[2-[[(2S)-2-[[(4S)-4-carboxy-4-[[(4S)-4-carboxy-4-(17-carboxyheptadecanoylamino)butanoyl]amino]butanoyl]amino]-3-hydroxypropanoyl]amino]acetyl]amino]butanoyl]amino]-3-hydroxypropanoyl]amino]acetyl]-[Aib2,Leu10,Glu15,Lys17,Arg20,Glu21,Leu27,Lys28]-Glucagon amide] (I: H-H[Aib]QGTFTSDLSKYLESKRAREFVQWLLKT-NH2 / II: {C18 diacid-γGlu-γGlu}-SGESG; amide I:28-II:C; N-terminus assumed), the pIC50 was 9.70.

Source: patent US9474790B2, “Stable, protracted GLP-1/glucagon receptor co-agonists for medical use” (Novo Nordisk A/S, priority 2013, dated 2016)
